Test results published in PubChem BioAssay (NCI).
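Each compound was tested at five concentrations against cells in 96-well plates for 48 hours. At the TGI there is no net growth.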

Columns and labels:
Assay in all cases: NCI tumour cell line growth inhibition, 48 h
786-0 renal = test system: 786-0 renal
A498 renal = test system: A498 renal
A549 NSCLC = test system: A549 NSCLC
ACHN renal = test system: ACHN renal
CAKI-1 renal = test system: CAKI-1 renal
CCRF-CEM leukemia = test system: CCRF-CEM leukemia
COLO 205 colon = test system: COLO 205 colon
DLD-1 colon = test system: DLD-1 colon
DMS 114 small cell lung = test system: DMS 114 small cell lung
DMS 273 small cell lung = test system: DMS 273 small cell lung
EKVX NSCLC = test system: EKVX NSCLC
HCC-2998 colon = test system: HCC-2998 colon
HCT-116 colon = test system: HCT-116 colon
HCT-15 colon = test system: HCT-15 colon
HL-60(TB) leukemia = test system: HL-60(TB) leukemia
HOP-18 NSCLC = test system: HOP-18 NSCLC
HOP-62 NSCLC = test system: HOP-62 NSCLC
HOP-92 NSCLC = test system: HOP-92 NSCLC
HT29 colon = test system: HT29 colon
IGROV1 ovarian = test system: IGROV1 ovarian
K-562 leukemia = test system: K-562 leukemia
KM12 colon = test system: KM12 colon
KM20L2 colon = test system: KM20L2 colon
LOX IMVI melanoma = test system: LOX IMVI melanoma
LXFL 529 NSCLC = test system: LXFL 529 NSCLC
M14 melanoma = test system: M14 melanoma
M19-MEL melanoma = test system: M19-MEL melanoma
MALME-3M melanoma = test system: MALME-3M melanoma
MOLT-4 leukemia = test system: MOLT-4 leukemia
NCI-H23 lung = test system: NCI-H23 lung
NCI-H460 lung = test system: NCI-H460 lung
NCI-H522 lung = test system: NCI-H522 lung
OVCAR-3 ovarian = test system: OVCAR-3 ovarian
OVCAR-4 ovarian = test system: OVCAR-4 ovarian
OVCAR-5 ovarian = test system: OVCAR-5 ovarian
OVCAR-8 ovarian = test system: OVCAR-8 ovarian
RPMI-8226 leukemia = test system: RPMI-8226 leukemia
RXF 393 renal = test system: RXF 393 renal
SF-268 CNS = test system: SF-268 CNS
SF-295 CNS = test system: SF-295 CNS
SF-539 CNS = test system: SF-539 CNS
SK-MEL-2 melanoma = test system: SK-MEL-2 melanoma
SK-MEL-28 melanoma = test system: SK-MEL-28 melanoma
SK-MEL-5 melanoma = test system: SK-MEL-5 melanoma
SK-OV-3 ovarian = test system: SK-OV-3 ovarian
SN12C renal = test system: SN12C renal
SNB-19 CNS = test system: SNB-19 CNS
SNB-75 CNS = test system: SNB-75 CNS
SNB-78 CNS = test system: SNB-78 CNS
SW-620 colon = test system: SW-620 colon
TK-10 renal = test system: TK-10 renal
U251 CNS = test system: U251 CNS
UACC-257 melanoma = test system: UACC-257 melanoma
UACC-62 melanoma = test system: UACC-62 melanoma
UO-31 renal = test system: UO-31 renal
XF 498 CNS = test system: XF 498 CNS

Measured: TGI

Cc1cc(NS(=O)(=O)c2ccc(NC(=O)c3cccc4c(Nc5ccc(S(=O)(=O)Nc6cc(C)on6)cc5)c5ccc(Cl)cc5nc34)cc2)no1
86.3 µM: UO-31 renal
81.8 µM: SNB-19 CNS
57.5 µM: HCT-116 colon
65.2 µM: SNB-75 CNS
80.5 µM: HOP-92 NSCLC
> 100 µM: all other assays above
